According to the NIST ThermoML archive (doi:10.1016/j.jct.2016.09.030):
± gives the expanded uncertainty stated by the source.

Assay: refractive index (Na D-line) (dimensionless); xn = mol fraction of the nth substance listed
Details: 100 kPa, Liquid, Standard Abbe refractometry

CCCCCCCC(=O)OCC [ethyl octanoate] + CC(C)CO
refractive index
Details | x1 = 0.1001 | x1 = 0.1999 | x1 = 0.3 | x1 = 0.4 | x1 = 0.5 | x1 = 0.5999 | x1 = 0.6999 | x1 = 0.7999 | x1 = 0.9 | x1 = 1
288.15 K | 1.4018 ± 0.0028 | 1.4052 ± 0.0028 | 1.408 ± 0.0028 | 1.4102 ± 0.0028 | 1.4123 ± 0.0028 | 1.4142 ± 0.0028 | 1.4158 ± 0.0028 | 1.4173 ± 0.0028 | 1.4186 ± 0.0028 | 1.4199 ± 0.0028
293.15 K | 1.3997 ± 0.0028 | 1.403 ± 0.0028 | 1.4058 ± 0.0028 | 1.408 ± 0.0028 | 1.4101 ± 0.0028 | 1.412 ± 0.0028 | 1.4136 ± 0.0028 | 1.4151 ± 0.0028 | 1.4164 ± 0.0028 | 1.4177 ± 0.0028
298.15 K | 1.3976 ± 0.0028 | 1.4009 ± 0.0028 | 1.4036 ± 0.0028 | 1.4058 ± 0.0028 | 1.4079 ± 0.0028 | 1.4097 ± 0.0028 | 1.4114 ± 0.0028 | 1.4128 ± 0.0028 | 1.4142 ± 0.0028 | 1.4155 ± 0.0028
303.15 K | 1.3955 ± 0.0028 | 1.3987 ± 0.0028 | 1.4014 ± 0.0028 | 1.4036 ± 0.0028 | 1.4056 ± 0.0028 | 1.4075 ± 0.0028 | 1.4091 ± 0.0028 | 1.4106 ± 0.0028 | 1.4119 ± 0.0028 | 1.4132 ± 0.0028
308.15 K | 1.3933 ± 0.0028 | 1.3965 ± 0.0028 | 1.3992 ± 0.0028 | 1.4014 ± 0.0028 | 1.4034 ± 0.0028 | 1.4052 ± 0.0028 | 1.4069 ± 0.0028 | 1.4084 ± 0.0028 | 1.4097 ± 0.0028 | 1.411 ± 0.0028
313.15 K | 1.3911 ± 0.0028 | 1.3942 ± 0.0028 | 1.3969 ± 0.0028 | 1.3991 ± 0.0028 | 1.4012 ± 0.0028 | 1.403 ± 0.0028 | 1.4046 ± 0.0028 | 1.4061 ± 0.0028 | 1.4075 ± 0.0028 | 1.4088 ± 0.0028
318.15 K | 1.3889 ± 0.0028 | 1.392 ± 0.0028 | 1.3947 ± 0.0028 | 1.3968 ± 0.0028 | 1.3989 ± 0.0028 | 1.4007 ± 0.0028 | 1.4024 ± 0.0028 | 1.4039 ± 0.0028 | 1.4052 ± 0.0028 | 1.4066 ± 0.0028
323.15 K | 1.3867 ± 0.0028 | 1.3898 ± 0.0028 | 1.3925 ± 0.0028 | 1.3946 ± 0.0028 | 1.3967 ± 0.0028 | 1.3985 ± 0.0028 | 1.4001 ± 0.0028 | 1.4017 ± 0.0028 | 1.403 ± 0.0028 | 1.4044 ± 0.0028

CCCCCCCC(=O)OCC [ethyl octanoate] + CC(C)CCO
refractive index
Details | x1 = 0.1 | x1 = 0.2001 | x1 = 0.3 | x1 = 0.4 | x1 = 0.5001 | x1 = 0.5999 | x1 = 0.7003 | x1 = 0.7998 | x1 = 0.9001 | x1 = 1
288.15 K | 1.4104 ± 0.0028 | 1.412 ± 0.0028 | 1.4134 ± 0.0028 | 1.4146 ± 0.0028 | 1.4156 ± 0.0028 | 1.4166 ± 0.0028 | 1.4175 ± 0.0028 | 1.4183 ± 0.0028 | 1.4191 ± 0.0028 | 1.4199 ± 0.0028
293.15 K | 1.4083 ± 0.0028 | 1.4099 ± 0.0028 | 1.4112 ± 0.0028 | 1.4124 ± 0.0028 | 1.4135 ± 0.0028 | 1.4144 ± 0.0028 | 1.4153 ± 0.0028 | 1.4161 ± 0.0028 | 1.4169 ± 0.0028 | 1.4177 ± 0.0028
298.15 K | 1.4063 ± 0.0028 | 1.4078 ± 0.0028 | 1.4091 ± 0.0028 | 1.4102 ± 0.0028 | 1.4113 ± 0.0028 | 1.4122 ± 0.0028 | 1.4131 ± 0.0028 | 1.4139 ± 0.0028 | 1.4147 ± 0.0028 | 1.4155 ± 0.0028
303.15 K | 1.4042 ± 0.0028 | 1.4056 ± 0.0028 | 1.4069 ± 0.0028 | 1.4081 ± 0.0028 | 1.4091 ± 0.0028 | 1.41 ± 0.0028 | 1.4109 ± 0.0028 | 1.4116 ± 0.0028 | 1.4125 ± 0.0028 | 1.4132 ± 0.0028
308.15 K | 1.4021 ± 0.0028 | 1.4035 ± 0.0028 | 1.4047 ± 0.0028 | 1.4059 ± 0.0028 | 1.4069 ± 0.0028 | 1.4078 ± 0.0028 | 1.4087 ± 0.0028 | 1.4094 ± 0.0028 | 1.4102 ± 0.0028 | 1.411 ± 0.0028
313.15 K | 1.3999 ± 0.0028 | 1.4013 ± 0.0028 | 1.4026 ± 0.0028 | 1.4037 ± 0.0028 | 1.4047 ± 0.0028 | 1.4056 ± 0.0028 | 1.4064 ± 0.0028 | 1.4072 ± 0.0028 | 1.408 ± 0.0028 | 1.4088 ± 0.0028
318.15 K | 1.3978 ± 0.0028 | 1.3992 ± 0.0028 | 1.4004 ± 0.0028 | 1.4015 ± 0.0028 | 1.4024 ± 0.0028 | 1.4034 ± 0.0028 | 1.4042 ± 0.0028 | 1.405 ± 0.0028 | 1.4058 ± 0.0028 | 1.4066 ± 0.0028
323.15 K | 1.3957 ± 0.0028 | 1.397 ± 0.0028 | 1.3982 ± 0.0028 | 1.3993 ± 0.0028 | 1.4003 ± 0.0028 | 1.4012 ± 0.0028 | 1.402 ± 0.0028 | 1.4027 ± 0.0028 | 1.4036 ± 0.0028 | 1.4044 ± 0.0028
